Source: ChEMBL document CHEMBL1131545, “A practical synthesis of 3-substituted delta 3,5(6)-steroids as new potential 5 alpha-reductase inhibitor” (Bioorg Med Chem Lett, 1998)

Tests used:
[1] = biological target: T1, Steroid 5-alpha-reductase (Rattus norvegicus, UniProt P24008+P31214); assay: Ability to inhibit Steroid 5-alpha-reductase in rat using Enzyme kinetics method.
T1 sequence (P24008 whole entry): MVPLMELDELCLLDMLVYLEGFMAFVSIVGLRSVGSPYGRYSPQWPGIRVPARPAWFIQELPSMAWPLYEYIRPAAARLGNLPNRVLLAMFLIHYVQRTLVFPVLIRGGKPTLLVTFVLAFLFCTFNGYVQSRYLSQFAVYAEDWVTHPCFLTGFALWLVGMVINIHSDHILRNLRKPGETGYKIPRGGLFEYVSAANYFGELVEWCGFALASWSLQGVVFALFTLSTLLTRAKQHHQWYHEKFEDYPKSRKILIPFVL
T1 sequence (P31214 whole entry): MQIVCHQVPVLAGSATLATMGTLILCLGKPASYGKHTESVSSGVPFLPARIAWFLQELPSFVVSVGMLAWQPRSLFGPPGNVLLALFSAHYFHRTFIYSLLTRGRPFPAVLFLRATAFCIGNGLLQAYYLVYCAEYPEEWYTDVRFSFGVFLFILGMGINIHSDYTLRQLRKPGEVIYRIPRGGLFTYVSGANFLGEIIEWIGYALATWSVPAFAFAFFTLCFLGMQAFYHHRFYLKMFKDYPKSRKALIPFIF

[2] = biological target: T1, Steroid 5-alpha-reductase; assay: Ability to inhibit Steroid 5-alpha-reductase in rat using Isotope method [3H]T to [3H]-DHT]

| Ki [1] | Ki [2] | Compound |
| --- | --- | --- |
| 18.1 nM | 68.5 nM | CCOP(=O)(OCC)C1=CC2=CCC3C(CC[C@@]4(C)C3CC[C@@H]4C(=O)NC(C)(C)C)[C@@]2(C)CC1 (some centres not stated) |
| 54.7 nM | 88.2 nM | CC(C)(C)NC(=O)[C@H]1CC[C@H]2[C@@H]3CC[C@H]4NC(=O)C=C[C@]4(C)[C@H]3CC[C@]12C [FINASTERIDE] |
| >> 1000 nM | >> 1000 nM | CCN(CC)C(=O)C1=CC2=CCC3C(CC[C@@]4(C)C3CC[C@@H]4C(=O)NC(C)(C)C)[C@@]2(C)CC1 (some centres not stated) |
| >> 1000 nM | >> 1000 nM | CC(C)(C)NC(=O)[C@H]1CCC2C3CC=C4C=CCC[C@]4(C)C3CC[C@@]21C (some centres not stated) |
| 45.8 nM | 100.2 nM | CC(C)(C)NC(=O)[C@H]1CCC2C3CC=C4C=C(C#Cc5ccccc5)CC[C@]4(C)C3CC[C@@]21C (some centres not stated) |
| >> 1000 nM | >> 1000 nM | CC(=O)C1=CC2=CCC3C(CC[C@@]4(C)C3CC[C@@H]4C(=O)NC(C)(C)C)[C@@]2(C)CC1 (some centres not stated) |
